This note sets out measurements from ChEMBL document CHEMBL4373717, “Coumarin-containing hybrids and their anticancer activities” (Eur J Med Chem, 2019).

Series [1] concerns HepG2. Briefly: Anticancer activity against human HepG2 cells by CCK8 assay. In kind it is functional, cell-based. In general terms: Formazan colour is commonly taken as a measure of viable cells.
The next series deals with Hep 3B2. Briefly: Anticancer activity against human Hep3B cells by CCK8 assay. In kind it is functional, cell-based.
Another series relates to A2780. Briefly: Anticancer activity against human A2780 cells by CCK8 assay. In kind it is functional, cell-based.
The test system of another series is OVCAR-3. The experiment in a line: Anticancer activity against human OVCAR3 cells by CCK8 assay. In kind it is functional, cell-based.
Series [2] deals with Vascular endothelial growth factor receptor 2 (Homo sapiens, UniProt P35968). Briefly: Inhibition of VEGFR2 (unknown origin).
The test system of a further series is DLD-1. The experiment in a line: Cytotoxicity against human DLD1 cells assessed as reduction in cell viability. In kind it is functional, cell-based.
The test system of series [3] is MCF7. The experiment in a line: Cytotoxicity against human MCF7 cells assessed as reduction in cell viability. In kind it is functional, cell-based.
In series [4] the test system is MCF7. The experiment in a line: Growth inhibition of human MCF7 cells relative to control. In kind it is functional.
For series [5], the system named is MDA-MB-231. Briefly: Growth inhibition of human MDA-MB-231 cells relative to control. The class given is functional.
In series [6] the test system is Ishikawa. The experiment in a line: Growth inhibition of human Ishikawa cells relative to control. In kind it is functional.
For series [7], the system named is MDA-MB-231. Briefly: Cytotoxicity against human MDA-MB-231 cells assessed as reduction in cell viability. The class given is functional, cell-based.
The subject of series [8] is Ishikawa. The experiment in a line: Cytotoxicity against human Ishikawa cells assessed as reduction in cell viability. The class given is functional, cell-based.
Series [9] concerns MCF7. Briefly: Potency index, ratio of methotrexate IC50 to compound IC50 for cytotoxicity against human MCF7 cells assessed as reduction in cell viability. In kind it is functional.
Series [10] deals with MCF7. The experiment in a line: Cytotoxicity against human MCF7 cells assessed as reduction in cell viability by MTT assay. The class given is functional, cell-based. Conditions: for IC50: Homo sapiens, MCF7.
The nature of series [11]: Toxicity in mouse assessed as mouse survival (reference value: 14.5 days). Conditions: in vivo, 348 h.
For the next series, the system named is COS-7. Briefly: Cytotoxicity against African green monkey COS7 cells assessed as reduction in cell viability by MTT assay. In kind it is functional, cell-based. Conditions: Chlorocebus aethiops.
For series [12], the system named is HeLa. The experiment in a line: Cytotoxicity against human HeLa cells assessed as reduction in cell viability by MTT assay. In kind it is functional, cell-based.
Another series concerns PANC-1. The experiment in a line: Cytotoxicity against human PANC1 cells assessed as reduction in cell viability by MTT assay. In kind it is functional, cell-based.
Series [13] relates to A549. The experiment in a line: Cytotoxicity against human A549 cells assessed as reduction in cell viability by MTT assay. The class given is functional, cell-based.
The subject of series [14] is HepG2. Briefly: Cytotoxicity against human HepG2 cells assessed as reduction in cell viability by MTT assay. The class given is functional, cell-based.
A further series concerns HCT-116. The experiment in a line: Anticancer activity against human HCT116 cells. In kind it is functional, cell-based.
Another series relates to PC-3. Briefly: Cytotoxicity against human PC3 cells assessed as reduction in cell viability by MTT assay. In kind it is functional, cell-based.
A further series has as its system HT-29. Briefly: Cytotoxicity against human HT-29 cells assessed as reduction in cell viability by MTT assay. The class given is functional, cell-based.
Series [15] relates to MDA-MB-231. The experiment in a line: Cytotoxicity against human MDA-MB-231 cells assessed as reduction in cell viability after 24 hrs by MTT assay. The class given is functional, cell-based. Conditions: Homo sapiens, MDA-MB-231, 24 h.
Series [16] has as its system A549. The experiment in a line: Cytotoxicity against human A549 cells assessed as reduction in cell viability after 24 hrs by MTT assay. The class given is functional, cell-based. Conditions: A549, 24 h.
Another series deals with L02. Briefly: Cytotoxicity against human L02 cells assessed as reduction in cell viability after 24 hrs by MTT assay. The class given is cell-based. Conditions: L02, 24 h.
Another series concerns HEK-293T. Briefly: Cytotoxicity against HEK293T cells assessed as reduction in cell viability after 24 hrs by MTT assay. The class given is cell-based. Conditions: Homo sapiens.
The test system of series [17] is HeLa. Briefly: Cytotoxicity against human HeLa cells assessed as reduction in cell viability after 24 hrs by MTT assay. In kind it is functional, cell-based.
For series [18], the system named is MCF7. Briefly: Cytotoxicity against human MCF7 cells assessed as reduction in cell viability after 24 hrs by MTT assay. In kind it is functional, cell-based. Conditions: MCF7, 24 h.

Some results are limits rather than exact numbers.

Chain of Vascular endothelial growth factor receptor 2 (P35968 whole entry): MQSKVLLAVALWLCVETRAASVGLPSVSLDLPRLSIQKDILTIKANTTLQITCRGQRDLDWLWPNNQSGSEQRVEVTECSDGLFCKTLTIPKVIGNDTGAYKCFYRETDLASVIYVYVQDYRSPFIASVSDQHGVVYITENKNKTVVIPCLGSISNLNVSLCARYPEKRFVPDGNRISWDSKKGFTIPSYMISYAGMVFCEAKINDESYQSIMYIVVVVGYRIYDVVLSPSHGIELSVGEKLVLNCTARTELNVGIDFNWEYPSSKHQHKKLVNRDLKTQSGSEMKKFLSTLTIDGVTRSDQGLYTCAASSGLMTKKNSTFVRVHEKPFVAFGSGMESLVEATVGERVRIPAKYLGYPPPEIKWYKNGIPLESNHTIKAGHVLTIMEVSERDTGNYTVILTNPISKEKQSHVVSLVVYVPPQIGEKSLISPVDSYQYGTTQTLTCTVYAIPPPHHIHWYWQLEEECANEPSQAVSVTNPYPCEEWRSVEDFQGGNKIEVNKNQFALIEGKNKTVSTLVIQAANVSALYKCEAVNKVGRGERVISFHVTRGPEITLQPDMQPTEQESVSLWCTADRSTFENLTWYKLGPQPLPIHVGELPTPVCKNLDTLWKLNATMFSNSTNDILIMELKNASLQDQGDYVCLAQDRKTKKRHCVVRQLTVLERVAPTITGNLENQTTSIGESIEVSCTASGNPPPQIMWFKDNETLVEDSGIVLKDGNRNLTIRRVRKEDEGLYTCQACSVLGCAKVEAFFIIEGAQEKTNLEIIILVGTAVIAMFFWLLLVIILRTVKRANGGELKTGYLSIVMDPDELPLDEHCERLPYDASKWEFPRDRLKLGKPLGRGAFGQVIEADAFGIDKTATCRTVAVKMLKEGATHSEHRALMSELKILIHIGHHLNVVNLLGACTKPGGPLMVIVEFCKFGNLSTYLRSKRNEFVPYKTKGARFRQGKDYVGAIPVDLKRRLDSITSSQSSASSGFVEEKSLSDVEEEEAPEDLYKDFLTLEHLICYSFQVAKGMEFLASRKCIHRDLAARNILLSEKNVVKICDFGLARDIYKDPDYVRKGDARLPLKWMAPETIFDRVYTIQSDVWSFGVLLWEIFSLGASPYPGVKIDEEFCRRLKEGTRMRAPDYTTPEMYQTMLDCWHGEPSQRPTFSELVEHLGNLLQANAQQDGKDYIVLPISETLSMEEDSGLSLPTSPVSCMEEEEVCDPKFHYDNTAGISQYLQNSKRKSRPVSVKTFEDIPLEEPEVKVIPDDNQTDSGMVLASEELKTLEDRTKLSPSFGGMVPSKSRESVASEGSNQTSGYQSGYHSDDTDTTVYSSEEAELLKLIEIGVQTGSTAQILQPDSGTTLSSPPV

Usually IC50 stands for the concentration at which inhibition is half-maximal. On to `CCN(CC)c1ccc2cc(C(=O)N3CCN(C(=O)CN4CCN(CCC[C@H]5O[C@@H]6O[C@@]7(C)CC[C@H]8[C@H](C)CC[C@@H]([C@H]5C)[C@@]68OO7)CC4)CC3)c(=O)oc2c1`, for which the IC50 with HepG2 [1], in the series with Hep 3B2, in the series on A2780 and in the series on OVCAR-3 was 2.33 to 23.7 µM each time.

Take `CN(C)c1ccc(C2CC(c3c(O)c4ccccc4oc3=O)=NN2c2nc(-c3ccccc3)c(/N=N/c3ccc(Cl)cc3)s2)cc1` (centres undefined): the IC50 in series [2] is 5.41 µM; in the series with DLD-1 it was 114 to 129 µM; in the series on MCF7 [3] it was 5.41 to 6.56 µM.

With `Cc1cc(=O)oc2cc(Oc3nc(-c4cccs4)cn4c(-c5cccs5)cnc34)ccc12`, the “growth inhibition (GI)” value in the series with MCF7 [4], with MDA-MB-231 [5] and with Ishikawa [6] was 10.57 - 92.29% in each case.

With `COC(=O)c1cc2cc(-c3nc4cc(C)ccn4c3NC(C)(C)C)cc(C(C)C)c2oc1=O`, the half-maximal inhibitory concentration (IC50) in the series on MDA-MB-231 [7], in the series on Ishikawa [8] and in the series with MCF7 [3] was 14.1 to 42.6 µM in each case.

As to `CCN(C)S(=O)(=O)c1ccc(/C(C)=N/NC(=O)c2cc(=O)oc3ccccc23)cc1`, in the series with MCF7 [9], the “Ratio IC50” value is listed as 10.7. The IC50 in the series on MCF7 [10] worked out at 2.53 µM.

As for `CCN(CC)c1ccc2cc(C(=O)NCCNC(=O)CN3CCN(CCC[C@H]4O[C@@H]5O[C@@]6(C)CC[C@H]7[C@H](C)CC[C@@H]([C@H]4C)[C@@]57OO6)CC3)c(=O)oc2c1`, the IC50 in the series on HepG2 [1], in the series with Hep 3B2, with A2780 and in the series with OVCAR-3 was 2.33 to 23.7 µM in each case.

`O=c1oc2ccccc2cc1-c1csc(N/N=C/c2c3ccccc3c(Cl)c3ccccc23)n1`: the Survival in [11] came to 45.5 days. The half-maximal inhibitory concentration (IC50) in the series with COS-7, with HeLa [12] and with MCF7 [3] was 1.29 to 1.96 µM in each case.

For the compound `O=c1oc2ccccc2cc1-c1csc(N/N=C/c2cc([N+](=O)[O-])ccc2Cl)n1`, the Survival in [11] was 39.3 days. In addition, the IC50 in the series with COS-7, in the series on HeLa [12] and with MCF7 [3] was 1.29 to 1.96 µM in each case.

For the compound `COc1cc(Cl)ccc1NS(=O)(=O)c1ccc2oc(=O)ccc2c1`, the IC50 was 4.63 to 7.02 µM with PANC-1; 4.63 to 7.02 µM with A549 [13]; 4.63 to 7.02 µM in the series with HepG2 [14] (Homo sapiens, HepG2).

Take `NS(=O)(=O)c1ccc(Nc2nn3c(Cc4cc(=O)oc5ccccc45)nnc3s2)cc1`: the concentration for half-maximal inhibition (IC50) with HCT-116 turned out to be 2.66 µM.

Turning to `COc1ccc2oc(=O)c(/C=C3\SC(=O)N(C(=O)c4ccc(Cl)cc4)C3=O)cc2c1`, the IC50 in the series with PC-3, with HT-29, with A549 [13], with HeLa [12] and in the series on MCF7 [10] was 0.95 to 3.2 µM throughout.

With `O=c1ccc2ccccc2o1` [COUMARIN], the IC50 in the series with HepG2 [1], in the series with Hep 3B2, with A2780 and in the series on OVCAR-3 was greater than 100 µM each time.

As for `O=c1[nH]cc(F)c(=O)[nH]1` [FLUOROURACIL], the Survival in series [11] worked out at 49 days. Moreover, the “growth inhibition (GI)” value in the series on HepG2 [14] and in the series with MCF7 [10] was 11.55 - 95.52% throughout.

As to `CC(C)=CC[C@@H](O)C1=CC(=O)c2c(O)ccc(O)c2C1=O` [SHIKONIN], the IC50 was 6.5 to 10.4 µM in the series on MDA-MB-231 [15]; 6.5 to 10.4 µM with A549 [16]; 6.22 µM in the series with L02; 1.52 µM in the series with HEK-293T; 6.5 to 10.4 µM in the series with HeLa [17]; 6.5 to 10.4 µM in the series with MCF7 [18].
